Experimental findings from PubChem BioAssay (NCI) are described below.

“And” between values parts separate entries of the source, which are not always exact repeats. Equal values may be shown once.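 The compound was tested at five concentrations on cells cultured in 96-well plates, with a 48-hour exposure period. GI50 marks 50% less growth. At the TGI there is no net growth.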

Some test systems named below: IGROV1 ovarian; HOP-92 NSCLC; SN12C renal; CAKI-1 renal; MOLT-4 leukemia; SK-MEL-28 melanoma; MDA-MB-231 breast; BT-549 breast; HS 578T breast; MCF7 breast.
Holding throughout (assay): inhibition of tumour cell growth, NCI panel, 48 h

In the case of `NS(=O)(=O)c1ccc(Nc2c3ccccc3nc3c(C(=O)N4CCN(CCO)CC4)cccc23)cc1`, the TGI in the assay on IGROV1 ovarian, in the assay on HOP-92 NSCLC, with SN12C renal, with CAKI-1 renal, with MOLT-4 leukemia and with SK-MEL-28 melanoma was above 100 µM each time.
Regarding `O=[N+]([O-])c1ccc(C(Cl)C(Cl)c2ccc(C(Cl)C(Cl)c3ccc([N+](=O)[O-])cc3[N+](=O)[O-])cc2)c([N+](=O)[O-])c1` (stereo not given), the GI50 with IGROV1 ovarian is 0.571 µM; in the assay with SN12C renal, 0.307 µM; in the assay with CAKI-1 renal, 0.35 µM; in the assay on SK-MEL-28 melanoma, 0.389 µM. Also, the TGI in the assay with IGROV1 ovarian was 11.4 µM and 8.68 µM; in the assay with HOP-92 NSCLC, 3.28 µM; in the assay with SN12C renal, 5.41 µM and 1.25 µM; in the assay with CAKI-1 renal, 5.7 µM and 1.93 µM; in the assay on MOLT-4 leukemia, above 62 µM; in the assay with SK-MEL-28 melanoma it was 12.3 µM and 1.96 µM.
As for `N#CC1=C(N)NC(=S)NC12Nc1ccccc1S2` (stereo not given), the GI50 in the assay with IGROV1 ovarian is 23.3 µM; in the assay with HOP-92 NSCLC, 22.4 µM; in the assay on SN12C renal it was 20.5 µM; with MDA-MB-231 breast, 16.4 µM; in the assay with CAKI-1 renal it was 15 µM; in the assay with BT-549 breast, 18.6 µM. For the same molecule, the GI50 is 28.8 µM in the assay with MOLT-4 leukemia and 26.3 µM in the assay on SK-MEL-28 melanoma. For the same molecule, the TGI with IGROV1 ovarian is above 100 µM; in the assay with HOP-92 NSCLC, above 100 µM; in the assay on SN12C renal, 63.6 µM; in the assay on MDA-MB-231 breast, 70.6 µM; in the assay with CAKI-1 renal, 45 µM; with BT-549 breast, 53 µM. Also, the TGI with MOLT-4 leukemia was above 100 µM; with SK-MEL-28 melanoma, 66.9 µM.
As for `CCN(CC)CC(C)C(=O)/C=C/c1ccc(C)cc1` (stereo not given), the TGI in the assay with IGROV1 ovarian stood at 4.86 µM; with HOP-92 NSCLC, 4.84 µM; in the assay with SN12C renal it was 3.02 µM; with CAKI-1 renal, 2.49 µM; in the assay with MOLT-4 leukemia, 7.07 µM; in the assay with SK-MEL-28 melanoma, 3.69 µM.
As for `CC(C)(C)c1cc(CCCCCCCC2(CCCCCCCc3cc(C(C)(C)C)cc(C(C)(C)C)c3)OC(COCCOCCCCCC#N)C(COCCOCCCCCC#N)O2)cc(C(C)(C)C)c1` (stereo not given), the TGI in the assay on IGROV1 ovarian, in the assay with HOP-92 NSCLC, with SN12C renal, with CAKI-1 renal and in the assay on SK-MEL-28 melanoma was above 100 µM throughout.
Take `Cc1ccc(S(=O)(=O)N2CCN(C=S)CC2)cc1`: the TGI in the assay with IGROV1 ovarian, in the assay with SN12C renal, with MOLT-4 leukemia and in the assay with SK-MEL-28 melanoma was above 100 µM throughout.
For the molecule `CC1=NN(C(=O)Nc2ccc(Cl)cc2)C(=O)C2CCC(=O)N12` (stereo not given), the TGI in the assay with IGROV1 ovarian, in the assay on HOP-92 NSCLC, in the assay with SN12C renal, in the assay with CAKI-1 renal, in the assay with MOLT-4 leukemia and with SK-MEL-28 melanoma was above 100 µM each time.
In the case of `C/C(=N\OCC(O)CNCCSCc1ccccc1)c1ccccc1Cl` (stereo not given), the TGI is 28.4 µM with HOP-92 NSCLC; 89.5 µM in the assay on HS 578T breast; 34.8 µM with SN12C renal; 35 µM in the assay with MDA-MB-231 breast; 34.6 µM in the assay with CAKI-1 renal; above 100 µM with MOLT-4 leukemia. Moreover, the figures for the TGI in the assay with MCF7 breast and with SK-MEL-28 melanoma were 44.6 µM and 37.5 µM, respectively.
Turning to `O=C(N/C(=C\c1cccc([N+](=O)[O-])c1)c1nc2ccccc2[nH]1)c1ccccc1`, the TGI with IGROV1 ovarian was above 100 µM; in the assay on HOP-92 NSCLC, above 100 µM; with SN12C renal, above 100 µM; with CAKI-1 renal it was above 100 µM; with MOLT-4 leukemia, above 100 µM; in the assay with SK-MEL-28 melanoma, 68.9 µM.
Take `CC(=O)O[C@H]1CCN2C(=O)C=CC(OCc3ccccc3)C12` (stereo not given in full): the TGI with IGROV1 ovarian, with HOP-92 NSCLC, with SN12C renal, with CAKI-1 renal, with MOLT-4 leukemia and with SK-MEL-28 melanoma was above 100 µM each time.
For `CSc1nc2nn(Cc3ccccc3)cc2c(=O)[nH]1`, the TGI with IGROV1 ovarian, in the assay on HOP-92 NSCLC, in the assay with SN12C renal, in the assay with CAKI-1 renal, in the assay with MOLT-4 leukemia and in the assay with SK-MEL-28 melanoma was above 100 µM throughout.
On to `N#CCC(=O)N/N=C1/C(=O)N(c2cc(Cl)ccc2Cl)C(=O)C(=O)C1c1nc2ccccc2s1` (stereo not given), for which the TGI in the assay with IGROV1 ovarian was above 100 µM; with HOP-92 NSCLC, 83.1 µM; with SN12C renal, above 100 µM; in the assay with CAKI-1 renal, 94.4 µM; with MOLT-4 leukemia, above 100 µM; with SK-MEL-28 melanoma, above 100 µM.
Consider `O=C(NCCCl)Nc1cccnc1`, for which the TGI with IGROV1 ovarian was determined as 35.6 µM; in the assay with HOP-92 NSCLC it was 53.3 µM; with SN12C renal, 64.7 µM; in the assay on MDA-MB-231 breast, 33.3 µM; in the assay with CAKI-1 renal it was 36.1 µM; with MOLT-4 leukemia, 81.8 µM. The TGI in the assay on MCF7 breast and with SK-MEL-28 melanoma was above 100 µM throughout.
`COc1cccc(/C=C/C(=O)c2sc(C(N)=S)nc2C)c1O`: the TGI was above 100 µM in the assay on IGROV1 ovarian; above 100 µM in the assay with HOP-92 NSCLC; above 100 µM in the assay with SN12C renal; above 100 µM in the assay with CAKI-1 renal; above 82.8 µM with MOLT-4 leukemia; above 100 µM in the assay on SK-MEL-28 melanoma.
With `CCOc1cn(C2OC(CO)C(O)C2O)c(=O)[nH]c1=O` (stereo not given), the TGI with IGROV1 ovarian, with HOP-92 NSCLC, with SN12C renal, in the assay on CAKI-1 renal, in the assay on MOLT-4 leukemia and with SK-MEL-28 melanoma was above 100 µM each time.
As to `COc1cc(CNCCN2C(=O)c3ccc4c5c(ccc(c35)C2=O)C(=O)N(CCNCc2cc(OC)c(OC)c(OC)c2)C4=O)cc(OC)c1OC`, the GI50 in the assay with IGROV1 ovarian was 0.296 µM; in the assay on SN12C renal, 0.622 µM; with MDA-MB-231 breast, 0.181 µM; in the assay with BT-549 breast it was 0.546 µM; in the assay on MCF7 breast it was 0.262 µM. Moreover, the TGI came to 1.89 µM with IGROV1 ovarian; 1.38 µM in the assay with SN12C renal; 0.605 µM in the assay on MDA-MB-231 breast; 1.22 µM with BT-549 breast; 1.05 µM in the assay on MCF7 breast.
In the case of `O=C(OCCCl)C1OC(n2cc(F)c(=O)[nH]c2=O)CC1O` (stereo not given), the TGI with IGROV1 ovarian, in the assay on HOP-92 NSCLC, in the assay on SN12C renal, in the assay with MOLT-4 leukemia and with SK-MEL-28 melanoma was above 100 µM in each case.
